Literature values as cited in US5484785A, “Salts of a quinolone-carboxylic acid” (Cheil Foods & Chemicals, Inc., priority 1992, dated 1996).

Tests used:
[1] = system: bacteria

O=C(O)c1cn(C2CC2)c2cc(N3CCNCC3)c(F)cc2c1=O [Ciprofloxacin lactate]
Precipitation in injection/solution (in words) (lactate: contained in the injection in an excessive amount): tends to occur precipitation in an injection

O=C(O)c1cn(C2CC2)c2cc(N3CCNCC3)c(F)cc2c1=O [Ciprofloxacin, 1-cyclopropyl-6-fluoro-1,4-dihydro-4-oxo-7-(1-piperazinyl)-quinoline-3-carboxylic acid]
Antibacterial activities (in words) [1]: potent antibacterial activities

methanesulfonate
pH of known Ciprofloxacin salts (in words) (solution): very low value of pH
